Where a name gives a salt, the structure may show the parent alone. Read-outs that look alike come from different tables or passages of the source.

The text below walks through data of patent US5688821A, “Unsaturated fatty acyl derivatives of 2-aminothiazoleacetic acid and their salts as inhibitors of phospholipase A2 derived from human sources” (American Home Products Corporation, priority 1996, dated 1997).

The target of one test is T1, Human Synovial PLA2 (Homo sapiens, UniProt P14555).
T1 construct: Purified human synovial fluid; from tissue; host or cells: human synovial fluid (purified)
T1 sequence (P14555 21-144): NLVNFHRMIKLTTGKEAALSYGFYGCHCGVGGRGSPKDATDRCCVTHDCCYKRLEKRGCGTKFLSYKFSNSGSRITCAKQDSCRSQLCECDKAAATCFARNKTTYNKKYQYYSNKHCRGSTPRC
Nature of the test: Inhibition of PLA2 derived from human synovial fluid (HSF), arachidonic acid release from 3H-AA E. coli substrate. The test is classed as biochemical. The note with it: for inhibition at 50 µM: Drug Concentration 50 μM; for inhibition at 10 µM / % Inhibition HSF: Drug Concentration 10 μM, Example 8: average of two runs; for % Inhibition HSF: 10 µM. The protocol:
(§1) The compounds of the invention are tested in an in vitro isolated phospholipase A2 assay to determine the ability of the test compounds to inhibit the release of arachidonic acid from an arachidonic acid-containing substrate by the action of phospholipase A enzyme from two human sources.
(§2) 1. INHIBITION OF PLA2 DERIVED FROM HUMAN PLATELETS AND HUMAN SYNOVIAL FLUID
(§3) This assay is carried out as follows:
(§4) Into a 15 mL polypropylene tube are added the following: […]
(§5) *pre-incubate at room temperature 30 min prior to substrate addition.
(§6) ^1. Prepared by adding 2 mL deionized and distilled water to 2 mL ^3 H-arachidonate labeled E. coli (lower count), to which is added 1 mL of ^3 H-arachidonate labeled E. coli (higher count) to yield a total of […] substrate (containing 1000 nmoles phospholipid, PL).
(§7) ^2 Stock 0.1M CaCl2 required for enzyme activity.
(§8) ^3 Stock 0.5M Trisma-Base. Stock 0.5M Trisma-HCl. Adjust pH to 7.5 (optimum for enzyme).
(§9) ^4 Deionized and distilled water.
(§10) ^5 Stock 10 mM prepared in dimethyl sulfoxide. Make 1:2 dilution with dimethyl sulfoxide and add 1 μL to 100 μL assay tube.
^6 Two human PLA2 enzymes are used: […]
(b) Purified human synovial fluid.
(§11) Incubate the […] reaction mixture for 10 minutes at 37° C. in a shaking water bath. The reaction is terminated by the addition of 2 mL tetrahydrofuran, followed by vortexing. NH2 columns ([…]--Analytichem International) are conditioned with 0.5 mL tetrahydrofuran followed by 0.5 mL tetrahydrofuran/water (2 mL:0.1 mL, v/v).
(§12) The sample is loaded onto the columns and slowly dram through them. The hydrolyzed arachidonic acid retained in the columns is eluted therefrom with 1 mL tetrahydrofuran/glacial acetic acid (2%). The arachidonic acid is transferred to scintillation vials and quantitated by β-counting analysis. A "total counts" sample is prepared by pipetting 25 μl, ^3 H-arachidonate E. coli directly into a scintillation vial to which is added 1 mL tetrahydrofuran. 10 mL aquasol (scintillation cocktail) is added to all samples.

For the next test, the target named is T2, Human Platelet PLA2 (Homo sapiens, UniProt P14555).
T2 construct: semi-purified human platelet acid extract PLA2; from tissue; host or cells: human platelets (semi-purified acid extract)
T2 sequence (P14555 21-144): T1 sequence (P14555 21-144)
Put plainly: Inhibition of PLA2 derived from human platelets (HP), arachidonic acid release from 3H-AA E. coli substrate. It is filed as biochemical. The following applies: for inhibition at 50 µM: Drug Concentration 50 μM; for inhibition at 10 µM / % Inhibition HP: Drug Concentration 10 μM, Example 8: average of two runs; for % Inhibition HP: 10 µM. How it is done: as §1, §2, §3, §4, §5, §6, §7, §8, §9, §10
^6 Two human PLA2 enzymes are used:
(a) semi-purified human platelet acid extract PLA2 (in 10 mM sodium acetate buffer, pH 4.5). Remove protein precipitate by centrifugation at about 2200 rpm for 10 minutes. […]
as §11, §12

Test [1] has as its system paw edema induced by the exogenous administration of PLA2. Put plainly: Murine paw edema assay (edema induced by exogenous PLA2). The test is classed as in vivo, mouse (male CD-1). The following applies: for % change paw edema: 30 mg/kg i.p., * p ≤0.05; for % change paw edema (in words): dose and time not given.
Test [2] concerns TPA-induced ear edema in mouse ears. Put plainly: TPA-induced dermal inflammation in mouse ears. The test is classed as in vivo, mouse (female Swiss Webster). The note with it: Topical, 30 min after TPA, measured 4 h after TPA, * p ≤0.05. How it is done:
2. TPA-induced dermal inflammation in mouse ears
Female Swiss Webster mice (Buckshire; 8 weeks old) were divided into groups of six. Tetradecanoylphorbol acetate CrPA) was dissolved in acetone at concentrations of 50 mg/ml and 200 μg/ml, respectively. Each mouse received 4 μg/ear of TPA on the right ear. These suboptimal doses of phlogistics were applied by an automatic pipette in 10 μl volumes to both the inner and outer surfaces of the ear. The left ear (control) received acetone or vehicle. […] Drags were given 30 min. after treatment (+30 min) with TPA. Edema measurements were taken with an Oditest calipers. The thickness of the right and left ears were usually measured in traits of 0.01 mm 4 h after TPA application. Ear edema was calculated by subtracting the thickness of the left ear (vehicle control) from right ear (treated ear).

Setting [3] is: test compounds, value in parentheses, Table 1, read-out: (IC50) HSF.
The mark [4] stands for this setting: test compounds, value in parentheses, Table 1, read-out: (IC50) HP.

As to `CCCCC/C=C\C/C=C\C/C=C\C/C=C\CCCC(=O)O` [Arachidonic Acid, reference compound], the IC50 on Human Synovial PLA2 (standard drugs, read-out: IC50 Human Synovial PLA2 (standard drugs)) is 3.2 µM; at Human Platelet PLA2 (standard drugs, read-out: IC50 Human Platelet PLA2 (standard drugs)), 8.6 µM.

Turning to `CCCCCCCC/C=C\CCCCCCCC(=O)Nc1nc(CC(=O)O)cs1` [Example 1, 2[((Z)-1-Oxo-9-octadecenyl)amino]-4-thiazoleacetic acid], the inhibition at 50 µM turned out to be 96% against Human Synovial PLA2 and 57.5% at Human Platelet PLA2. In addition, the IC50 was determined as 1.7 µM on Human Synovial PLA2 (setting [3]) and 27.9 µM at Human Platelet PLA2 (setting [4]).

Take `CCCCCCCC/C=C\CCCCCCCC(=O)Nc1nc(CC(=O)O)cs1` [Example 2, 2-[((Z)-1-Oxo-9-octadecenyl)amino]-4-thizaoleacetic acid, tromethamine (2-amino-2-hydroxymethyl)-1,3-propanediol) salt]: the inhibition at 10 µM stood at 25.9% on Human Synovial PLA2 and 36% against Human Platelet PLA2.

In the case of `CCCCCCCC/C=C/CCCCCCCC(=O)Nc1nc(CC(=O)O)cs1` [Example 3, 2-[((E)-1-Oxo-9-octadecenyl)amino]-4-thiazoleacetic acid], the inhibition at 50 µM is 81.7% against Human Synovial PLA2 and 70% against Human Platelet PLA2. In addition, the IC50 worked out at 2.1 µM at Human Synovial PLA2 (setting [3]) and 25.7 µM at Human Platelet PLA2 (setting [4]). Moreover, the “% change paw edema” value is -33% in test [1] (10 min after PLA2) and -43% in test [1] (30 min after PLA2). In addition, in test [2] (100 mg/ear (so in the source)), the “% Change Edema” value was -20%.

For `CCCCCCCCC#CCCCCCCCC(=O)Nc1nc(CC(=O)O)cs1` [Example 4, 2-[(1-Oxo-9-octadecynyl)amino]-4-thiazoleacetic acid], on Human Synovial PLA2, the “% Inhibition HSF” value worked out at 42.5%. In addition, the “% Inhibition HP” value at Human Platelet PLA2 came to 8.9%.

With `CCCCCCCCC#CCCCCCCCC(=O)Nc1nc(CC(=O)O)cs1` [Example 5, 2-[(1-Oxo-9-octadecynyl)amino]-4-thiazoleacetic acid, tromethamine salt], the “% Inhibition HSF” value on Human Synovial PLA2 stood at 66%. In addition, on Human Platelet PLA2, the “% Inhibition HP” value is on record as 26%.

Consider `CCCCC/C=C/C/C=C/CCCCCCCC(=O)Nc1nc(CC(=O)O)cs1` [Example 6], for which the inhibition at 10 µM is 84.8% against Human Synovial PLA2 and 74.6% at Human Platelet PLA2.

`CC/C=C\C/C=C\C/C=C\CCCCCCCC(=O)Nc1nc(CC(=O)O)cs1` [Example 7, 2-[((Z,Z,Z)-1-Oxo-9,12,15-octadecatrienyl)amino]-4-thiazole-acetic acid]: the inhibition at 10 µM against Human Synovial PLA2 came out at 38.5%; against Human Platelet PLA2 it was 0.5%.

As for `CCCC/C=C\CCCCCCCC(=O)Nc1nc(CC(=O)O)cs1` [Example 8, 2-[((Z)-1-Oxo-9-tetradecenyl)amino]-4-thiazoleacetic Acid], the “% Inhibition HSF” value at Human Synovial PLA2 was 2%. At Human Platelet PLA2, this molecule displayed an inhibition at 10 µM of 65.6%.

With `CCCC/C=C\CCCCCCCC(=O)Nc1nc(CC(=O)O)cs1` [Example 9, 2[((Z)-1-Oxo-9-tetradecenyl)amino]-4-thiazoleacetic acid, tromethamine salt], at Human Synovial PLA2, the “% Inhibition HSF” value turned out to be 26.9%. In addition, the “% Inhibition HP” value at Human Platelet PLA2 was found to be 74%.

Turning to `CCCCC/C=C\C/C=C\CCCCCCCCCC(=O)Nc1nc(CC(=O)O)cs1` [Example 10, 2[((Z,Z)-1-Oxo-11,14-eicosadienyl)amino]-4-thiazoleacetic acid], the inhibition at 50 µM stood at 86.3% against Human Synovial PLA2 and 82.7% at Human Platelet PLA2.

As for `CC1=C(CC/C(C)=C/CC/C(C)=C/CCC2=CC(=O)OC2O)C(C)(C)CCC1` (centres unmarked) [Luffariellolide, reference compound], the “% change paw edema (in words)” value in test [1] is on record as “Inactive”.

Turning to `c1ccc2nc(COc3cccc4ccccc34)ccc2c1` [WY-47288, reference compound], in test [1], the “% change paw edema (in words)” value is on record as “Inactive”. In test [2] (1 mg/ear), the “% Change Edema” value is listed as -40%.

The IC50 is the concentration that gives 50% inhibition. As a reminder, the inhibition is the drop in the measured response relative to a control, in per cent.
